The record followed here is patent US9556202B2, “Sulfonamide derivatives and methods of use thereof for improving the pharmacokinetics of a drug” (MERCK SHARP & DOHME CORP., priority 2012, dated 2017).

Structures are written as SMILES.

Experiment [1] addresses T1, CYP3A4 (Homo sapiens, UniProt P08684).
T1 construct: 0.01 mg/mL protein human liver microsomes (BD Gentest); tissue BD Gentest; host or cells: human liver microsomes
The experiment is described as follows: IC50 vs CYP3A by inhibition of lopinavir metabolism in human liver microsomes. It counts as biochemical. The note with it: human liver microsomes 0.01 mg/mL, 1.5 μM lopinavir, 8 min 37° C.; test conc. e.g. 0.098-100 nM; unit inferred; read-out: 3A4(LPV). As for the experimental part: Determination of IC50 Vs CYP3A by Measurement of Inhibition of Lopinavir Metabolism
This assay was performed in a standard 96-well plate design. IC50 values were calculated from the percent inhibition observed for each test compound at 6 concentrations (for example, 0.098, 0.391, 1.56, 6.25, 25 and 100 nM). The incubation substrate mix contains 1.5 μM lopinavir, 0.01 mg/mL protein human liver microsomes (BD Gentest), 1 mM NAPDH, 3.3 mM MgCl2 and 100 mM potassium phosphate buffer (pH 7.4). The production of the sum of three hydroxylated metabolites (M2: 6-hydroxy lopinavir, M3: 4-hydroxy lopinavir, M4: 4-hydroxy lopinavir (epimer of M3), Kumar et al., 1999) was determined after incubation for 8 min at 37° C. Quantitation of the metabolite peak area ratio against an internal standard (tolbutamide) was determined by LC/MS/MS analysis following acetonitrile treatment of the incubations.
(§1) Samples were analyzed in the MRM mode with a SCIEX API-4000 mass spectrometer (Applied Biosystems, Foster City, Calif.), with a Shimadzu LC-20 AD pump (Shimadzu corporation, Kyoto, JP) and a CTC PAL autosampler (Agilent Technologies, Switzerland). A Phenomenex, Luna, 5 μm, 100 A, 2.00×30 mm HPLC column was used for the separation. The mobile phases were: (A) 0.1% formic acid in water and (B) 0.1% formic acid in acetonitrile. The binary gradient was as follows.
The peak area ratio of the analyte to the internal standard was used to quantify the metabolite. The values of peak area ratios in the presence of test compound were compared to those of maximum or minimum controls and were expressed as % inhibition by interpolating between the maximum and minimum peak area ratios. Incubations with no inhibitor were defined as the maxima and with 5 μM ketoconazole were defined as the minima.
(§2) The following equation was used to calculate the % inhibition: [1−[(X−Low control)/(High control−Low control)]]*100
For the IC50 calculation, SigmaPlot was used to plot the mean % inhibition versus the test compound concentrations and for non-linear regression analysis of the data. Depending on the range of data points defining the inhibition curve, the data may have been fit to the 4-parameter logistic equation.

Experiment [2] has as its target T2, CYP2C19 (Homo sapiens, UniProt P33261).
T2 construct: 0.1 mg/mL protein human liver microsomes (BD Gentest); tissue BD Gentest; host or cells: human liver microsomes
The experiment is described as follows: Cocktail CYP inhibition assay in human liver microsomes, mephenytoin 4'-hydroxylation. The conditions noted are these: human liver microsomes 0.1 mg/mL, 30 μM mephenytoin, 10 min 37° C.; unit inferred. Type of experiment: in vitro ADME. As for the experimental part:
(§3) Determination of IC50 in a Cocktail Assay for CYPs 1A2, 2C9, 2C19, 2D6 and 3A4
(§4) This assay was performed in a standard 96-well plate design. IC50 values were calculated from the percent inhibition observed for each test compound at 6 concentrations (for example, 0.0032, 0.016, 0.08, 0.4, 2 and 10 μM). The incubation substrate mix contains 10 μM phenacetin (1A2), 5 μM diclofenac (2C9), 30 μM mephenytoin (2C19), 5 μM dextromethorphan (2D6) and 2 μM midazolam (3A4), 0.1 mg/mL protein human liver microsomes (BD Gentest), 1 mM NAPDH, 3.3 mM MgCl2 and 100 mM potassium phosphate buffer (pH 7.4). The production of the metabolite of each probe substrate was determined after incubation for 10 min at 37° C. Quantitation of the metabolite peak area ratio against an internal standard (tolbutamide) was determined by LC/MS/MS analysis following acetonitrile treatment of the incubations.
as §1
(§5) The peak area ratio of the analyte to the internal standard was used to quantify the metabolite. The values of peak area ratios in the presence of test compound were compared to those of maximum or minimum controls and were expressed as % inhibition by interpolating between the maximum and minimum peak area ratios. Incubations with no inhibitor were defined as the maxima.
as §2
(§6) For the IC50 calculation, SigmaPlot was used to plot the mean % inhibition versus the test compound concentrations and for non-linear regression analysis of the data. […]

The target of experiment [3] is T3, CYP2D6 (Homo sapiens, UniProt P10635).
T3 construct: 0.1 mg/mL protein human liver microsomes (BD Gentest); tissue BD Gentest; host or cells: human liver microsomes
Description: Cocktail CYP inhibition assay in human liver microsomes, dextromethorphan O-demethylation. Type of experiment: in vitro ADME. The note with it: human liver microsomes 0.1 mg/mL, 5 μM dextromethorphan, 10 min 37° C.; unit inferred. As to the method: as §3, §4, §1, §5, §2, §6

Experiment [4] concerns the target T4, human CYP11B1 (Homo sapiens, UniProt P15538).
T4 construct: expressed in transfected cells
T4 sequence (P15538 25-503): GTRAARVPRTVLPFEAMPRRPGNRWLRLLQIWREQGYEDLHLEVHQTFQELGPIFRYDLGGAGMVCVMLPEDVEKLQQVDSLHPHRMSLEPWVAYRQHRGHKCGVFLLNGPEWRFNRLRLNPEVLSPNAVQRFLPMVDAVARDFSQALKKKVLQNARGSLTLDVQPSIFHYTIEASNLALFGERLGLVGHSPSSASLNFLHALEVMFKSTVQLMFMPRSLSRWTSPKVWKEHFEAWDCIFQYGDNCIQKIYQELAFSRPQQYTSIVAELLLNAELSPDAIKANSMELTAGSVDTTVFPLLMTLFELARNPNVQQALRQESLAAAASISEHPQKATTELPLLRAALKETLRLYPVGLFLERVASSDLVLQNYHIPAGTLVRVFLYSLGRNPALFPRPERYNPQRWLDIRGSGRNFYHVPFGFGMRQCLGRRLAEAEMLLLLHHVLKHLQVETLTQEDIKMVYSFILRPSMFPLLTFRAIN
The experiment is described as follows: IC50 vs CYP11B1 by cortisol synthesis in V79 cells (HTRF). It counts as cell-based. The conditions noted are these: V79 cells expressing human CYP11B1, 1500 nM RSS, test conc. 0.5-10000 nM, unit inferred. As for the experimental part:
Determination of IC50 Vs CYP11B1/CYP11B2 by Measurement of Cortisol/Aldosterone Synthesis
This assay was performed in a standard 384-well plate design using cultured V79 cells stably expressing human CYP11B1 or human CYP11B2. Test compounds at 10 concentrations (for example, 10000, 3333.3, 1111.1, 370.4, 123.5, 41.2, 13.7, 4.6, 1.5 and 0.5 nM) were added in 384-well plate after the cell-seeding procedure. The incubation substrate contains 1500 nM RSS for CYP11B1 assay/750 nM DOC for CYP11B2 assay. The Cortisol/Aldosterone production of cell culture supernatant was determined by Cortisol/Aldosterone HTRF kit after for about 15 hours incubation at RT (protect from light). IC50 values were calculated from the percent inhibition observed for each test compound at 10 concentrations.
The assay plate was read using Envision (Perkin Elmer, Waltham, Mass.) at 665 nm and 590 nm (using Filter Barcode of 217#, 205#; Mirror Barcode of 446#).
Data are analyzed using Assay Data Analyzer. All ratio data (665 nm/590 nm) are back calculated according to the standard curve, resulting in Cortisol/Aldosterone concentrations. IC50 values are reported as the Inflection Point (IP) of a four parameter fit of the titration data.
The following equation was used to calculate the % inhibition: % Activity=100×{1−(Sample_back calculated Cortisol/Aldosterone concentration−LC_back calculated Cortisol/Aldosterone concentration)/(HC_back calculated Cortisol/Aldosterone concentration−LC_back calculated Cortisol/Aldosterone concentration)} Curve Fitting: Four Parameter Logistic: […]

T3 sequence (P10635 whole entry): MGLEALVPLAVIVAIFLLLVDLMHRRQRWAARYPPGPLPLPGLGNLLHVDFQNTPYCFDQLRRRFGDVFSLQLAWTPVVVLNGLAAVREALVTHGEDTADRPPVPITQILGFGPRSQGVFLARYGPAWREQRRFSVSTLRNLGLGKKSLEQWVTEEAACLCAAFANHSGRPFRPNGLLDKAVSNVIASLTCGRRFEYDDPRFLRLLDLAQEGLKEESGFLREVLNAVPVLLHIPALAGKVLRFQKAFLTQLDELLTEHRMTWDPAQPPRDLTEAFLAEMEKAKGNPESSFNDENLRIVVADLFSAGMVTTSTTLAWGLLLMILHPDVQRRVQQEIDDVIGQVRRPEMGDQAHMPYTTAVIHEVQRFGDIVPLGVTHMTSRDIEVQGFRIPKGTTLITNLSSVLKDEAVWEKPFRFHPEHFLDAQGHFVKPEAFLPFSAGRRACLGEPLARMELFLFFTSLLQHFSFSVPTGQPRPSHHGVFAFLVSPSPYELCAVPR
T1 sequence (P08684 2-503): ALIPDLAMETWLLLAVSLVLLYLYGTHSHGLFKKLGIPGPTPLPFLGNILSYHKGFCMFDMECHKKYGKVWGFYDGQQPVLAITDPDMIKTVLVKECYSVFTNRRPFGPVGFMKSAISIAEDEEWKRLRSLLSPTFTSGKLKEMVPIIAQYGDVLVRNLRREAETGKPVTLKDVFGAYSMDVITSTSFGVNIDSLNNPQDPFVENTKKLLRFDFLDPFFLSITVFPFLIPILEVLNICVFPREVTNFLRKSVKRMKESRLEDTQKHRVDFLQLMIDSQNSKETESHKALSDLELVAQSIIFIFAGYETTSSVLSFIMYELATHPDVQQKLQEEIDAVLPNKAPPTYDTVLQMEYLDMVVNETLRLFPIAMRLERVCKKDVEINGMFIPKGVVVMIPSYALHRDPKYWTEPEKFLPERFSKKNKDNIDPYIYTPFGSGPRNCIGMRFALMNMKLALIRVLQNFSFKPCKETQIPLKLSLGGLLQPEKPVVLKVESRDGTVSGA
T2 sequence (P33261 whole entry): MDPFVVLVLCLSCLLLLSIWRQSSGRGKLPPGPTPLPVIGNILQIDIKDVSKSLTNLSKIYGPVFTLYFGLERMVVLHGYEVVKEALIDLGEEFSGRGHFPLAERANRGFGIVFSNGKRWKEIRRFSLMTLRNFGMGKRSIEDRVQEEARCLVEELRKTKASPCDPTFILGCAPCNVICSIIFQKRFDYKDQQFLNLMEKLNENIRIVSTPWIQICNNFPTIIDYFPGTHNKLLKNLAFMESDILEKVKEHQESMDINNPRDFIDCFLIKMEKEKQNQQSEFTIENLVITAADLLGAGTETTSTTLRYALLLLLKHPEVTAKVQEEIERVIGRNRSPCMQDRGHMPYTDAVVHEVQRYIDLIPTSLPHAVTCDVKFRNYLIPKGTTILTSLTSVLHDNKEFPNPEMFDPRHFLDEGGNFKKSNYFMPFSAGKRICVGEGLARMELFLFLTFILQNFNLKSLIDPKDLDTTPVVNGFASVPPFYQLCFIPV

On to `COCC(c1cncn1[C@H](C)c1ccc(F)cc1)N1CCN(S(=O)(=O)c2cnc(N3CCN(C)CC3)s2)CC1` (single isomer, unassigned) [Compound 35], for which the IC50 in experiment [1] is 3.8 nM; in experiment [2], above 10 µM; in experiment [3], 8.89 µM; in experiment [4], 2180 nM.
For `COCCC(c1cncn1[C@H](C)c1ccc(F)cc1)N1CCN(S(=O)(=O)c2cnc(N3CCN(C)CC3)s2)CC1` (single isomer, unassigned) [Compound 36], in that order: 4.3 nM, above 10 µM, 4.08 µM and 1350 nM.
On to `C[C@H](c1ccc(F)cc1)n1cncc1C1CCCC2CN(S(=O)(=O)c3cnc(Nc4ccccn4)s3)CCN21` (single isomer, unassigned) [Compound 38], for which the IC50 in experiment [1] was 2.5 nM; in experiment [2] it was 4.18 µM; in experiment [3] it was 7.13 µM; in experiment [4], 2140 nM.
